Experimental data from ChEMBL document CHEMBL1201862, “PubChem BioAssay data set” (2004).
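Five compound concentrations were applied to cells in 96-well plates for 48 hours; endpoints were derived by simple linear interpolation of the resulting dose-response curve. GI50: concentration for 50% inhibition of growth.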 Active and inactive are the calls of the source. No stated cut-off is given here; in the data, active = GI50 up to about 1.1 µM and inactive = higher.

Legend:
Assay in all cases: DTP human tumour cell line panel, 48 h
EKVX = system: EKVX
SK-MEL-5 = system: SK-MEL-5
U-251 = system: U-251
SR = system: SR
TK-10 = system: TK-10
OVCAR-3 = system: OVCAR-3
HT-29 = system: HT-29
IGROV-1 = system: IGROV-1
OVCAR-5 = system: OVCAR-5
CAKI-1 = system: CAKI-1
HCT-116 = system: HCT-116
SF-539 = system: SF-539
UACC-257 = system: UACC-257
Malme-3M = system: Malme-3M
RXF 393 = system: RXF 393
SK-MEL-2 = system: SK-MEL-2

Measured: GI50

CCN(CC)CCC(=O)N1CCc2c([nH]c3ccccc23)C1c1cccnc1 (stereo not given)
inactive: EKVX > 100 µM | SK-MEL-5 > 100 µM | U-251 > 100 µM | SR > 100 µM | TK-10 > 100 µM | OVCAR-3 > 100 µM | HT-29 > 100 µM | IGROV-1 > 100 µM | OVCAR-5 > 100 µM | CAKI-1 > 100 µM | HCT-116 > 100 µM | SF-539 > 100 µM | UACC-257 > 100 µM

CN(C)c1ccc(C2CC(=O)C(C#N)=C(c3ccccc3)NN2C)cc1 (stereo not given)
inactive: Malme-3M 5.65 µM | RXF 393 25.2 µM | SK-MEL-5 3.54 µM | U-251 15.5 µM | SR 14.1 µM | TK-10 > 100 µM | SK-MEL-2 6.05 µM | HT-29 5.14 µM | OVCAR-5 > 100 µM | CAKI-1 9.82 µM | HCT-116 11.5 µM | UACC-257 6.76 µM

CCn1c(C)nn2c(=O)c3ccccc3nc2c1=O
inactive: EKVX > 100 µM | Malme-3M > 100 µM | SK-MEL-5 > 100 µM | U-251 > 100 µM | TK-10 > 100 µM | OVCAR-3 > 100 µM | SK-MEL-2 > 100 µM | HT-29 > 100 µM | IGROV-1 > 100 µM | OVCAR-5 > 100 µM | CAKI-1 > 100 µM | HCT-116 > 100 µM | SF-539 > 100 µM | UACC-257 > 100 µM

N#Cc1ccccc1NC(=O)/C(=N\Nc1ccc([N+](=O)[O-])cc1)C1C(=O)NC(=O)NC1=O
inactive: EKVX > 100 µM | Malme-3M > 100 µM | RXF 393 > 100 µM | SK-MEL-5 > 100 µM | U-251 > 100 µM | TK-10 > 100 µM | OVCAR-3 > 100 µM | SK-MEL-2 > 100 µM | IGROV-1 > 100 µM | OVCAR-5 > 100 µM | CAKI-1 31.4 µM | HCT-116 > 100 µM | SF-539 > 100 µM | UACC-257 > 100 µM

C=C(CN(C)C)C(=O)c1ccccc1C
inactive: EKVX > 100 µM | Malme-3M 17.9 µM | RXF 393 12.9 µM | SK-MEL-5 > 86.5 µM | U-251 > 100 µM | SR 14.2 µM | TK-10 > 74.6 µM | OVCAR-3 33.1 µM | SK-MEL-2 > 100 µM | HT-29 > 100 µM | IGROV-1 > 100 µM | OVCAR-5 > 100 µM | CAKI-1 27.5 µM | HCT-116 24.8 µM | SF-539 > 40.4 µM | UACC-257 > 55.7 µM

COc1ccc(/C=C(\C(C)=O)C(=O)Nc2ccccc2)cc1
inactive: EKVX > 100 µM | Malme-3M > 100 µM | RXF 393 > 100 µM | SK-MEL-5 > 100 µM | U-251 > 100 µM | SR > 100 µM | TK-10 > 100 µM | OVCAR-3 > 100 µM | SK-MEL-2 > 100 µM | HT-29 > 100 µM | IGROV-1 > 100 µM | OVCAR-5 > 100 µM | CAKI-1 > 100 µM | HCT-116 > 100 µM | SF-539 > 100 µM | UACC-257 > 100 µM

CC1=NN(c2ccccc2)C(=O)C1/N=N/c1ccc(Br)cc1C (stereo not given)
inactive: EKVX > 100 µM | Malme-3M > 100 µM | RXF 393 50.5 µM | SK-MEL-5 > 100 µM | U-251 38.3 µM | TK-10 39.4 µM | OVCAR-3 > 100 µM | SK-MEL-2 56.6 µM | HT-29 > 100 µM | IGROV-1 67.3 µM | OVCAR-5 > 100 µM | CAKI-1 46.2 µM | HCT-116 81.3 µM | SF-539 58.9 µM | UACC-257 > 100 µM

COc1ccc(NC(=O)C(=O)c2c(O)c3ccc(O)cc3oc2=O)c([N+](=O)[O-])c1
inactive: EKVX > 100 µM | Malme-3M > 100 µM | RXF 393 > 100 µM | SK-MEL-5 > 100 µM | TK-10 > 100 µM | OVCAR-3 > 100 µM | SK-MEL-2 > 100 µM | HT-29 > 100 µM | IGROV-1 > 100 µM | OVCAR-5 > 100 µM | CAKI-1 > 100 µM | HCT-116 > 100 µM | SF-539 > 100 µM | UACC-257 > 100 µM

O=C(N/C=C1\C(=O)Oc2ccccc2C1=O)Nc1ccccc1
inactive: EKVX > 100 µM | Malme-3M 17 µM | RXF 393 16.7 µM | SK-MEL-5 25.8 µM | U-251 40.2 µM | SR 69 µM | TK-10 34 µM | OVCAR-3 75 µM | SK-MEL-2 18.5 µM | HT-29 > 100 µM | IGROV-1 51.2 µM | OVCAR-5 61.5 µM | CAKI-1 15.1 µM | HCT-116 37.7 µM | SF-539 43.8 µM | UACC-257 91.2 µM

O=C(C(=O)n1ncc(Cl)c(Cl)c1=O)n1ncc(Cl)c(Cl)c1=O
inactive: EKVX 40.4 µM | Malme-3M 19.7 µM | RXF 393 > 10 µM | SK-MEL-5 35.5 µM | U-251 35.7 µM | TK-10 27.4 µM | OVCAR-3 27.1 µM | SK-MEL-2 23.3 µM | HT-29 18.2 µM | IGROV-1 27.4 µM | OVCAR-5 > 100 µM | CAKI-1 17.7 µM | HCT-116 15.8 µM | SF-539 28.8 µM | UACC-257 19.5 µM

O=C(Nc1c(Cl)cc([N+](=O)[O-])cc1Cl)C(=O)C(C(=O)c1ccncc1)C1OC(=O)c2ccccc21 (stereo not given)
inactive: EKVX > 100 µM | Malme-3M > 100 µM | RXF 393 > 100 µM | U-251 > 100 µM | SR > 100 µM | TK-10 > 100 µM | OVCAR-3 > 100 µM | HT-29 > 100 µM | IGROV-1 > 100 µM | OVCAR-5 > 100 µM | CAKI-1 > 100 µM | HCT-116 > 100 µM | UACC-257 > 100 µM

O=[N+]([O-])c1ccc(Cl)c(C2CC(c3cccc4ccccc34)=Nc3ccccc3S2)c1 (stereo not given)
inactive: EKVX 70.8 µM | Malme-3M > 54.8 µM | RXF 393 8.91 µM | SK-MEL-5 16.7 µM | U-251 20.5 µM | SR 3.58 µM | TK-10 41 µM | OVCAR-3 16.3 µM | SK-MEL-2 21.7 µM | HT-29 17.3 µM | IGROV-1 48.5 µM | OVCAR-5 42.1 µM | CAKI-1 21.9 µM | HCT-116 6.68 µM | SF-539 20.6 µM | UACC-257 31.6 µM

O=C(/C=C1\NC(=O)c2ccccc2N1)c1ccncc1
inactive: EKVX > 100 µM | Malme-3M > 100 µM | SK-MEL-5 > 100 µM | U-251 > 100 µM | SR > 100 µM | TK-10 > 100 µM | OVCAR-3 > 100 µM | SK-MEL-2 > 100 µM | HT-29 > 100 µM | IGROV-1 > 100 µM | OVCAR-5 > 100 µM | CAKI-1 > 100 µM | HCT-116 > 100 µM | UACC-257 > 100 µM

c1ccc2c3c([nH]c2c1)C1C2CCCCN2C(c2ccncc2)N1CC3 (stereo not given)
inactive: EKVX 54.3 µM | Malme-3M 34 µM | RXF 393 29.3 µM | SK-MEL-5 43 µM | U-251 39.9 µM | SR 33.9 µM | OVCAR-3 44.1 µM | SK-MEL-2 39.4 µM | HT-29 33.1 µM | OVCAR-5 35.7 µM | CAKI-1 34.4 µM | HCT-116 35 µM | SF-539 58.3 µM | UACC-257 51.2 µM

CCOC(=O)Nc1ccc(S(=O)(=O)OC)cc1.CCOC(=O)Nc1ccc(S(=O)(=O)OC)cc1.NNC(=O)c1ccncc1
inactive: EKVX > 50 µM | Malme-3M > 50 µM | SK-MEL-5 > 50 µM | U-251 11.1 µM | TK-10 > 50 µM | OVCAR-3 > 50 µM | SK-MEL-2 > 50 µM | HT-29 44.7 µM | IGROV-1 > 50 µM | OVCAR-5 > 50 µM | CAKI-1 > 50 µM | HCT-116 14.3 µM | SF-539 > 50 µM | UACC-257 > 50 µM

COC(=O)CC(C(C(=O)OC)C(=O)OC)N1C(=O)OCC1c1ccccc1 (stereo not given)
inactive: EKVX > 100 µM | Malme-3M > 100 µM | RXF 393 > 100 µM | SK-MEL-5 > 100 µM | U-251 > 100 µM | TK-10 > 100 µM | OVCAR-3 > 100 µM | SK-MEL-2 > 100 µM | HT-29 > 100 µM | IGROV-1 > 100 µM | OVCAR-5 > 100 µM | CAKI-1 > 100 µM | HCT-116 > 100 µM | SF-539 > 100 µM | UACC-257 > 100 µM

COc1ccccc1/C=C1\CCC(CCN(C)C)(C2=CCCC2)C1=O (stereo not given)
inactive: EKVX 1.81 µM | Malme-3M 15.7 µM | RXF 393 12.8 µM | SK-MEL-5 13.8 µM | U-251 16.6 µM | SR 31.6 µM | TK-10 18.5 µM | OVCAR-3 16.9 µM | SK-MEL-2 19.5 µM | HT-29 15.3 µM | IGROV-1 14.1 µM | OVCAR-5 19.1 µM | CAKI-1 20.9 µM | HCT-116 12.7 µM | SF-539 15.1 µM | UACC-257 17.2 µM

COc1ccc(C/C(=N/O)C(=O)NCCc2cc(Br)c(OCCCN(C)C)c(Br)c2)cc1Br [APLYSAMINE 2]
inactive: EKVX 19.6 µM | Malme-3M 27.6 µM | RXF 393 21.6 µM | U-251 17.7 µM | TK-10 29.8 µM | OVCAR-3 21.6 µM | SK-MEL-2 20.1 µM | HT-29 5.92 µM | OVCAR-5 22.3 µM | CAKI-1 25.6 µM | HCT-116 14.5 µM | SF-539 13.6 µM | UACC-257 16.1 µM
